For this assay, the system named is Mycobacterium tuberculosis. Briefly: Compound was tested for inhibitory activity against Mycobacterium tuberculosis H37Rv ATCC 27294 and the activity is expressed as minimum inhibitory concentration (MIC). The format is functional.

Each structure is given as a SMILES string. Converted amounts (≈) assume the structure as drawn. A value given as a limit tells only on which side of the number the result lay.

One may read the MIC as the smallest concentration in the dilution series that meets the test's criterion for growth inhibition. Lower therefore signals greater potency.

`CC(C)(C)C(=O)OCn1nnnc1-c1cnccn1` had an MIC of 13 µg/mL (≈ 49.6 µM). To `c1cnc(C2N=NN=N2)cn1` belongs greater than 210 µg/mL; to `CC(C)(C)C(=O)OCn1nnc(-c2cccnc2)n1`, 13 µg/mL (≈ 49.8 µM); to `CC(=O)Oc1cc(=O)oc2cnccc12`, greater than 210 µg/mL.

`C[S+]([O-])CC(=O)c1cccnc1` (stereo unspecified) returned a minimum inhibitory concentration (MIC) greater than 210 µg/mL. To `CC(C)(C)C(=O)OCn1nnnc1-c1ccncc1` belongs 52 µg/mL (≈ 199 µM). To `O=c1cc(O)c2ccncc2o1` belongs greater than 210 µg/mL. The result for `c1cc(C2N=NN=N2)ccn1` reads greater than 210 µg/mL; that for `C[S+]([O-])CC(=O)c1ccncc1` (stereo unspecified), greater than 210 µg/mL. `CSCC(=O)c1cccnc1`: 210 µg/mL (≈ 1260 µM) was the least that counted as inhibitory (MIC). To `C[S+]([O-])CC(=O)c1cnccn1` (stereo unspecified) belongs greater than 210 µg/mL; to `CC(C)(C)C(=O)OCn1nnnc1-c1cccnc1`, 105 µg/mL (≈ 402 µM). Regarding `c1cncc(C2N=NN=N2)c1`, the MIC was greater than 210 µg/mL. `CSCC(=O)c1cnccn1` returned an MIC of 105 µg/mL (≈ 624 µM).

As to `CSCC(=O)c1ccncc1`, the minimal inhibitory concentration (MIC) amounted to 210 µg/mL (≈ 1260 µM). With `CC(C)(C)C(=O)OCn1nnc(-c2cnccn2)n1`, the MIC was found to be 26 µg/mL (≈ 99.1 µM). Consider `CCOC(=O)Oc1cc(=O)oc2cnccc12`, for which the MIC was greater than 210 µg/mL. With `O=C(Oc1cc(=O)oc2cnccc12)c1ccccc1`, the lowest concentration to inhibit growth (MIC) was 210 µg/mL (≈ 786 µM). Regarding `CC(C)(C)C(=O)OCn1nnc(-c2ccncc2)n1`, inhibition of growth (MIC) required 26 µg/mL (≈ 99.5 µM).

Molecule `NNC(=O)c1ccncc1` [ISONIAZID] had an MIC of less than 0.02 µg/mL. `NC(=O)c1cnccn1` [PYRAZINAMIDE]: 52 µg/mL (≈ 422 µM) was the least that counted as inhibitory (MIC).

For the origin of these results see ChEMBL document CHEMBL1131006, “Antimycobacterial activity of substituted isosteres of pyridine- and pyrazinecarboxylic acids” (1998).
